# Ends that are not written are not given here.
# Legend:
# [1] = tested on: antiserum against ESPGPERVW peptide of human VGF; type: binding; settings: for inhibition of binding of the antiserum to labeled peptide: 1, 10, and 100 pmol of the peptides
# Description: Namely, to 100 μL of antiserum diluted 9×10^5 folds with RIA buffer, 100 μL of RIA buffer containing a fixed amount of [^125I]-labeled Peptide 1 (approximately 20000 cpm, 500-550 Bq, approximately 9 fmol in terms of peptide amount) and 100 μL of RIA buffer solutions each containing a sequentially diluted VGF-derived peptide were added, this was incubated at 4° C. for 40 hours, and the labeled Peptide 1 and VGF-derived peptide were competitively bound to the antibody in the antiserum. As controls, reactions that use RIA buffer instead of the antiserum to measure non-specific binding, and reactions that use RIA buffer instead of VGF-derived peptide solutions to measure the maximum binding level were carried out. Reactions for non-specific binding were performed in quadruplicates, and the other reactions were performed in duplicates, and for each of the reactants, the immune complex was precipitated as in the above-mentioned antibody titer measurements, and its radioactivity (cpm) was measured. The average radioactivity of non-specific binding reaction is defined as non-specific binding level N, the radioactivity value for each VGF-derived peptide addition reaction is defined as Y, and the radioactivity value of maximum binding reaction is defined as Z. The percentage ratio (B/B0) of antiserum specific binding level (B) with peptide addition to the maximum binding level (B0), was determined using the following formula.
# B/B0(%)={(Y−N)/(Z−N)}×100
# Accordingly, the amount of peptide that achieves 50% B/B0, more specifically, the amount of peptide that yields 50% inhibition of the maximum binding level, was used as an indicator of the peptide binding activity to the antiserum.
# [2] = tested on: hypothalamic cells of the apoaequorin-expressing mice; assay: Intracellular calcium ion increase (aequorin luminescence), hypothalamus; type: cell-based, mouse; settings: for increase of intracellular calcium concentration in hypothalamic cells (RLU per second): added at 25 seconds; for luminescence (intracellular calcium ion increase) in hypothalamus: peptide at final concentrations of 1 μmol/L and 5 μmol/L
# Description: (§1) A hypothalamus, pituitary gland, kidney, heart, blood vessel, or a portion of brain tissue is collected from transgenic mice systemically expressing apoaequorin (WO02/010371) produced by introducing an apoaequorin gene expression vector into fertilized eggs. The obtained hypothalamus, pituitary gland, kidney, heart, blood vessel, or brain tissue is cut finely into pieces, suspended in a medium containing coelenterazine, and then incubated to incorporate coelenterazine into the cells to form aequorin (a complex of apoaequorin and coelenterazine). Since aequorin luminesces upon binding to intracellular calcium ions, the relative luminescence level in cells before and after addition of a medium containing the peptide or a pharmaceutically acceptable salt thereof is measured in a luminometer every second over time and is used as an indicator of intracellular calcium ion concentration. Increase in the relative luminescence level due to addition of the peptide or pharmaceutically acceptable salt thereof confirms that the peptide or pharmaceutically acceptable salt thereof has the activity to increase intracellular calcium ion concentration.
# (§2) Whether Peptides 1 to 8 synthesized in Example 2 have the activity of increasing intracellular calcium ion concentration was investigated using the organs of transgenic mice introduced with the apoaequorin gene and systemically expressing apoaequorin (hereinafter referred to as apoaequorin-expressing mice). In apoaequorin-expressing mouse cells, light is emitted when apoaequorin binds to a calcium ion in the presence of the luminescent substrate coelenterazine and thus the intracellular calcium ion concentration can be monitored. Patent Document (WO02/010371) discloses the method for producing apoaequorin-expressing mice, method for evaluating biologically active substances that use biological samples derived from the mice, and experimental results of evaluating biologically active peptides using the mouse organs as shown below. […] Therefore, apoaequorin-expressing mice can be used in the evaluation of the physiological activities of novel peptides.
# (§3) Apoaequorin-expressing mice were produced according to the method disclosed in Reference Example 4 of Patent Document (WO02/010371). The apoaequorin-expressing mice were sacrificed, individual organs including thymus, hypothalamus, spleen, bone, aorta, heart, kidney, adrenal gland, pancreas, pituitary gland, uterus, medulla oblongata, and spinal cord were removed; and each of the organs was cut into small cubes of approximately 1 to 2 mm^3. Next, in 5-mL tubes (Rohren-Tubes; manufactured by Sarstedt, No. 55.476), three portions of each of the prepared organs were added to 50 μL of a 10 μmol/L solution of coelenterazine (manufactured by Molecular Probes) dissolved in RPMI 1640 medium, and these were cultured at 37° C. for three hours. After culturing, RPMI 1640 medium was added, and then Peptides 1 to 5 dissolved in RPMI 1640 medium were added 25 seconds after the addition of RPMI 1640 until each peptide had final concentrations of 1 μmol/L and of 5 μmol/L, and the relative luminescence levels were measured every second immediately after the addition of RPMI 1640 medium by using a luminometer (AutoLumat LB953, manufactured by Berthold).
# [3] = tested on: pituitary cells of the apoaequorin-expressing mice; assay: Intracellular calcium ion increase (aequorin luminescence), pituitary gland; type: cell-based, mouse; settings: for increase of intracellular calcium concentration in pituitary cells (RLU per second): added at 25 seconds; for luminescence (intracellular calcium ion increase) in pituitary gland: peptide at final concentrations of 1 μmol/L and 5 μmol/L
# Description: as §1, §2, §3
# [4] = tested on: medulla oblongata of apoaequorin-expressing mice; assay: Intracellular calcium ion increase (aequorin luminescence), medulla oblongata; type: cell-based, mouse; settings: peptide at final concentrations of 1 μmol/L and 5 μmol/L
# Description: as §1, §2, §3
# [5] = tested on: cardiac cells of the apoaequorin-expressing mice; assay: Intracellular calcium ion increase (aequorin luminescence), heart; type: cell-based, mouse
# Description: as §1, §2, §3
# [6] = tested on: thymus of apoaequorin-expressing mice; assay: Intracellular calcium ion increase (aequorin luminescence), thymus; type: cell-based, mouse; settings: peptide at final concentrations of 1 μmol/L and 5 μmol/L
# Description: as §1, §2
# Apoaequorin-expressing mice were produced according to the method disclosed in Reference Example 4 of Patent Document (WO02/010371). […] After culturing, RPMI 1640 medium was added, and then Peptides 1 to 5 dissolved in RPMI 1640 medium were added 25 seconds after the addition of RPMI 1640 until each peptide had final concentrations of 1 μmol/L and of 5 μmol/L, and the relative luminescence levels were measured every second immediately after the addition of RPMI 1640 medium by using a luminometer (AutoLumat LB953, manufactured by Berthold).
# [7] = tested on: kidney cells of the apoaequorin-expressing mice; assay: Intracellular calcium ion increase (aequorin luminescence), kidney; type: cell-based, mouse
# Description: as §1, §2, §3
# [8] = tested on: male rats; settings: direct administration to the PVN of male rats; Non-patent Document 7; cited from earlier work
# [9] = 1 μmol/L peptide, added at 25 seconds
# [10] = peptide at final concentrations of 1 μmol/L and 5 μmol/L
compound,measurement,setting,value
CC[C@H](C)[C@@H]1NC(=O)[C@H](CCCNC(=N)N)NC(=O)[C@H](CC(=O)O)NC(=O)[C@H](CCSC)NC(=O)[C@H](CCCNC(=N)N)NC(=O)CNC(=O)CNC(=O)[C@H](Cc2ccccc2)NC(=O)[C@@H](NC(=O)[C@H](CO)NC(=O)[C@H](CO)NC(=O)[C@H](CCCNC(=N)N)NC(=O)[C@H](CCCNC(=N)N)NC(=O)[C@H](CC(C)C)NC(=O)[C@@H](N)CO)CSSC[C@@H](C(=O)N[C@@H](CC(N)=O)C(=O)N[C@@H](CO)C(=O)N[C@@H](Cc2ccccc2)C(=O)N[C@@H](CCCNC(=N)N)C(=O)N[C@@H](Cc2ccc(O)cc2)C(=O)O)NC(=O)CNC(=O)[C@H](CC(C)C)NC(=O)CNC(=O)[C@H](CO)NC(=O)[C@H](CCC(N)=O)NC(=O)[C@H](C)NC(=O)CNC1=O [atrial natriuretic peptide],inhibition of binding of the antiserum to labeled peptide,[1],none of these peptides showed inhibition
NC(=O)CC[C@@H]1NC(=O)[C@H](Cc2ccccc2)NC(=O)[C@H](Cc2ccc(O)cc2)NC(=O)[C@@H](N)CSSC[C@@H](C(=O)N2CCC[C@H]2C(=O)N[C@@H](CCCN=C(N)N)C(=O)NCC(N)=O)NC(=O)[C@H](CC(N)=O)NC1=O [vasopressin],inhibition of binding of the antiserum to labeled peptide,[1],none of these peptides showed inhibition
ESPGPERVW,amount of the peptide that yields 50% inhibition of the maximum binding level (B/B0 50%),"[1]; antiserum diluted 9×10^5 folds, [125I]-labeled peptide approximately 9 fmol",9.0 fmol
Leu-enkephalin,inhibition of binding of the antiserum to labeled peptide,[1],none of these peptides showed inhibition
Met-enkephalin-Arg-Gly-Leu (YGGFMRGL) [non-VGF peptide],inhibition of binding of the antiserum to labeled peptide,[1],none of these peptides showed inhibition
PAMP-20,inhibition of binding of the antiserum to labeled peptide,[1],none of these peptides showed inhibition
"Peptide 2: amino acid sequence at position 195 to 206 in human VGF (VNLESPGPERVW; synthetic Peptide 2, VGF-related peptide, human VGF positions 195-206)",increase of intracellular calcium concentration in hypothalamic cells (RLU per second),[2]; 1 μmol/L peptide,increase of intracellular calcium concentration
same,luminescence (intracellular calcium ion increase) in hypothalamus,[2],luminescence was observed
same,increase of intracellular calcium concentration in pituitary cells (RLU per second),[3]; 1 μmol/L peptide,increase of intracellular calcium concentration
same,luminescence (intracellular calcium ion increase) in pituitary gland,[3],luminescence was observed
same,luminescence (intracellular calcium ion increase) in medulla oblongata,[4],luminescence was observed
same,increase of intracellular calcium concentration in cardiac cells (RLU per second),[5]; [9],increase of intracellular calcium concentration
same,luminescence (intracellular calcium ion increase) in heart,[5]; [10],luminescence was observed
"Peptide 3: amino acid sequence at position 485 to 495 in human VGF (NAPPEPVPPPR; synthetic Peptide 3, VGF-related peptide, human VGF positions 485-495)",increase of intracellular calcium concentration in hypothalamic cells (RLU per second),[2]; 1 μmol/L peptide,increase of intracellular calcium concentration
same,luminescence (intracellular calcium ion increase) in hypothalamus,[2],luminescence was observed
same,increase of intracellular calcium concentration in pituitary cells (RLU per second),[3]; 5 μmol/L peptide,increase of intracellular calcium concentration
same,luminescence (intracellular calcium ion increase) in pituitary gland,[3],luminescence was observed
same,luminescence (intracellular calcium ion increase) in thymus,[6],luminescence was observed
same,luminescence (intracellular calcium ion increase) in medulla oblongata,[4],luminescence was observed
same,increase of intracellular calcium concentration in kidney cells (RLU per second),[7]; [9],increase of intracellular calcium concentration
same,luminescence (intracellular calcium ion increase) in kidney,[7]; [10],luminescence was observed
"Peptide 9: amino acid sequence at position 554 to 577 in human VGF (TLQPPSALRRRHYHHALPPSRHYP; synthetic Peptide 9, VGF-related peptide, human VGF positions 554-577)",increase of intracellular calcium concentration in hypothalamic cells (RLU per second),[2]; 5 μmol/L peptide,increase of intracellular calcium concentration
same,luminescence (intracellular calcium ion increase) in hypothalamus,[2],luminescence was observed
same,increase of intracellular calcium concentration in pituitary cells (RLU per second),[3]; 5 μmol/L peptide,increase of intracellular calcium concentration
same,luminescence (intracellular calcium ion increase) in pituitary gland,[3],luminescence was observed
adrenomedullin,inhibition of binding of the antiserum to labeled peptide,[1],none of these peptides showed inhibition
calcitonin,inhibition of binding of the antiserum to labeled peptide,[1],none of these peptides showed inhibition
calcitonin receptor-stimulating peptide,inhibition of binding of the antiserum to labeled peptide,[1],none of these peptides showed inhibition
corticotropin-releasing factor,inhibition of binding of the antiserum to labeled peptide,[1],none of these peptides showed inhibition
glucagon,inhibition of binding of the antiserum to labeled peptide,[1],none of these peptides showed inhibition
melanin-concentrating hormone,inhibition of binding of the antiserum to labeled peptide,[1],none of these peptides showed inhibition
melanocyte-stimulating hormone,inhibition of binding of the antiserum to labeled peptide,[1],none of these peptides showed inhibition
neuromedin U-8,inhibition of binding of the antiserum to labeled peptide,[1],none of these peptides showed inhibition
neuropeptide Y,inhibition of binding of the antiserum to labeled peptide,[1],none of these peptides showed inhibition
"peptide HI: non-VGF peptide (HADGVFTSDYSRLLGQISAKKYLESLI; ends and bridges not checked; UniProt P01283 81-107, looked up)",inhibition of binding of the antiserum to labeled peptide,[1],none of these peptides showed inhibition
"rat VGF (577-617): known partial peptide, positions 577-617 of rat VGF (HHPDLEAQARRAQEEADAEERRLQEQEELENYIEHVLLHRP; UniProt P20156 577-617, looked up, fragment)",erection inducing activity,[8],showed an erection inducing activity
"rat VGF (588-617): known partial peptide, positions 588-617 of rat VGF (AQEEADAEERRLQEQEELENYIEHVLLHRP; UniProt P20156 588-617, looked up, fragment)",erection inducing activity,[8],showed an erection inducing activity
"rat VGF (599-617): known partial peptide, positions 599-617 of rat VGF (LQEQEELENYIEHVLLHRP; UniProt P20156 599-617, looked up, fragment)",erection inducing activity,[8],showed an erection inducing activity
secretin,inhibition of binding of the antiserum to labeled peptide,[1],none of these peptides showed inhibition

# Reference: patent US20100075343A1, “NOVEL PEPTIDES” (priority 2007, published 2010)
